The data set has as its system adjuvant arthritis. The note with it: rat, in vivo.

In the case of mycolic acids [MA tb], the Toxic effects result is listed as “No toxic effects” and the “Toxic effects within the tested doses” value was “No toxic effects”.
